Laboratory results from PubChem BioAssay AID2060616 (Molecular Pharmacology Branch, DTP, NCI, 2025).

System: 377384-186-R-J1-PDC complex spheroid viability
Test: Anticancer human tumor 377384-186-R-J1-PDC patient-derived pancreatic carcinoma cell line growth inhibition [CLK]
Details: for IC50: curve of first compound; for viability, T/C: stronger effect = lower value; active means viability on the fitted dose curve at most 10% of control; inactive means the rest
Summary of the method: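 Multi-cell-type spheroids combined patient-derived tumor cells with HUVEC endothelial cells and human mesenchymal stem cells. Paired agents were dosed in half-log steps down from about clinical Cmax, or from 10 microM where Cmax was unknown.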

[1] = second compound 0.0316 µM, first compound 0.0316 µM
[2] = second compound 0.0316 µM, first compound 0.1 µM
[3] = second compound 0.0316 µM, first compound 0.316 µM
[4] = second compound 0.0316 µM, first compound 1 µM
[5] = second compound 0.0316 µM, first compound 3.16 µM
[6] = second compound 0.0316 µM, first compound 10 µM
[7] = second compound 0.1 µM, first compound 0.0316 µM
[8] = second compound 0.1 µM, first compound 0.1 µM
[9] = second compound 0.1 µM, first compound 0.316 µM
[10] = second compound 0.1 µM, first compound 1 µM
[11] = second compound 0.1 µM, first compound 3.16 µM
[12] = second compound 0.1 µM, first compound 10 µM
[13] = second compound 0.316 µM, first compound 0.0316 µM
[14] = second compound 0.316 µM, first compound 0.1 µM
[15] = second compound 0.316 µM, first compound 0.316 µM
[16] = second compound 0.316 µM, first compound 1 µM
[17] = second compound 0.316 µM, first compound 3.16 µM
[18] = second compound 0.316 µM, first compound 10 µM
[19] = second compound 1 µM, first compound 0.0316 µM
[20] = second compound 1 µM, first compound 0.1 µM
[21] = second compound 1 µM, first compound 0.316 µM
[22] = second compound 1 µM, first compound 1 µM
[23] = second compound 1 µM, first compound 3.16 µM
[24] = second compound 1 µM, first compound 10 µM
[25] = second compound 3.16 µM, first compound 0.0316 µM
[26] = second compound 3.16 µM, first compound 0.1 µM
[27] = second compound 3.16 µM, first compound 0.316 µM
[28] = second compound 3.16 µM, first compound 1 µM
[29] = second compound 3.16 µM, first compound 3.16 µM
[30] = second compound 3.16 µM, first compound 10 µM
[31] = second compound 10 µM, first compound 0.0316 µM
[32] = second compound 10 µM, first compound 0.1 µM
[33] = second compound 10 µM, first compound 0.316 µM
[34] = second compound 10 µM, first compound 1 µM
[35] = second compound 10 µM, first compound 3.16 µM
[36] = second compound 10 µM, first compound 10 µM
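Further: spheroids exposed to agents for 7 days before reading.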
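Wherever viability, T/C is given: luminescence signal used as a stand-in for viable cells.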

CC(C)CC(NC(=O)C(Cc1ccccc1)NC(=O)c1cnccn1)B(O)O (stereo unspecified) + CNC(=O)c1ccc(Nc2nc(OC3CCCC3)c3c(-c4ccc5nc(C)oc5c4)c[nH]c3n2)c(OC)c1
inactive: viability, T/C (second compound 0.0316 µM, first compound 0.000949 µM) 75.2% | viability, T/C (second compound 0.1 µM, first compound 0.000949 µM) 44% | viability, T/C (second compound 0.316 µM, first compound 0.000949 µM) 21.4% | viability, T/C (second compound 1 µM, first compound 0.000949 µM) 17.2% | viability, T/C (second compound 3.16 µM, first compound 0.000949 µM) 14.8% | viability, T/C (second compound 10 µM, first compound 0.000949 µM) 14.3%
< 0.949 nM: IC50 (second compound 0.1 µM) | IC50 (second compound 0.316 µM) | IC50 (second compound 1 µM) | IC50 (second compound 3.16 µM) | IC50 (second compound 10 µM)
1.41 nM: IC50 (second compound 0.0316 µM)
active: viability, T/C (second compound 0.0316 µM, first compound 0.003 µM) 2.16% | viability, T/C (second compound 0.0316 µM, first compound 0.00949 µM) 0.37% | viability, T/C (second compound 0.0316 µM, first compound 0.03 µM) 0.17% | viability, T/C (second compound 0.0316 µM, first compound 0.0949 µM) 0.17% | viability, T/C (second compound 0.0316 µM, first compound 0.3 µM) 0.13% | viability, T/C (second compound 0.1 µM, first compound 0.003 µM) 1.4% | viability, T/C (second compound 0.1 µM, first compound 0.00949 µM) 0.25% | viability, T/C (second compound 0.1 µM, first compound 0.03 µM) 0.15% | viability, T/C (second compound 0.1 µM, first compound 0.0949 µM) 0.13% | viability, T/C (second compound 0.1 µM, first compound 0.3 µM) 0.15% | viability, T/C (second compound 0.316 µM, first compound 0.003 µM) 0.99% | viability, T/C (second compound 0.316 µM, first compound 0.00949 µM) 0.18% | viability, T/C (second compound 0.316 µM, first compound 0.03 µM) 0.14% | viability, T/C (second compound 0.316 µM, first compound 0.0949 µM) 0.15% | viability, T/C (second compound 0.316 µM, first compound 0.3 µM) 1.69% | viability, T/C (second compound 1 µM, first compound 0.003 µM) 0.98% | viability, T/C (second compound 1 µM, first compound 0.00949 µM) 0.28% | viability, T/C (second compound 1 µM, first compound 0.03 µM) 0.24% | viability, T/C (second compound 1 µM, first compound 0.0949 µM) 0.51% | viability, T/C (second compound 1 µM, first compound 0.3 µM) 0.35% | viability, T/C (second compound 3.16 µM, first compound 0.003 µM) 0.96% | viability, T/C (second compound 3.16 µM, first compound 0.00949 µM) 0.36% | viability, T/C (second compound 3.16 µM, first compound 0.03 µM) 0.23% | viability, T/C (second compound 3.16 µM, first compound 0.0949 µM) 0.31% | viability, T/C (second compound 3.16 µM, first compound 0.3 µM) 0.21% | viability, T/C (second compound 10 µM, first compound 0.003 µM) 0.81% | viability, T/C (second compound 10 µM, first compound 0.00949 µM) 0.71% | viability, T/C (second compound 10 µM, first compound 0.03 µM) 0.24% | viability, T/C (second compound 10 µM, first compound 0.0949 µM) 0.62% | viability, T/C (second compound 10 µM, first compound 0.3 µM) 0.3%

CC1COCCN1c1cc(C2(S(C)(=N)=O)CC2)nc(-c2ccnc3[nH]ccc23)n1 (stereo unspecified) + CNC(=O)c1ccc(Nc2nc(OC3CCCC3)c3c(-c4ccc5nc(C)oc5c4)c[nH]c3n2)c(OC)c1
232 nM: IC50 (second compound 0.1 µM)
active: viability, T/C [24] 7.93%
< 31.6 nM: IC50 (second compound 0.316 µM) | IC50 (second compound 1 µM) | IC50 (second compound 3.16 µM) | IC50 (second compound 10 µM)
inactive: viability, T/C [1] 105% | viability, T/C [2] 110% | viability, T/C [3] 106% | viability, T/C [4] 83.5% | viability, T/C [5] 43.5% | viability, T/C [6] 17.4% | viability, T/C [7] 62.4% | viability, T/C [8] 56.8% | viability, T/C [9] 52% | viability, T/C [10] 41.1% | viability, T/C [11] 23.7% | viability, T/C [12] 19.9% | viability, T/C [13] 21.3% | viability, T/C [14] 23.4% | viability, T/C [15] 18.6% | viability, T/C [16] 16.9% | viability, T/C [17] 13.8% | viability, T/C [18] 9.16% | viability, T/C [19] 20.6% | viability, T/C [20] 20.9% | viability, T/C [21] 22.3% | viability, T/C [22] 17.9% | viability, T/C [23] 12% | viability, T/C [25] 20.2% | viability, T/C [26] 21.2% | viability, T/C [27] 20.6% | viability, T/C [28] 18.9% | viability, T/C [29] 14.1% | viability, T/C [30] 9.68% | viability, T/C [31] 20.4% | viability, T/C [32] 19% | viability, T/C [33] 21.5% | viability, T/C [34] 19.4% | viability, T/C [35] 12.4% | viability, T/C [36] 9.21%
2600 nM: IC50 (second compound 0.0316 µM)

O=C(c1cc(Cc2n[nH]c(=O)c3ccccc23)ccc1F)N1CCN(C(=O)C2CC2)CC1 + CNC(=O)c1ccc(Nc2nc(OC3CCCC3)c3c(-c4ccc5nc(C)oc5c4)c[nH]c3n2)c(OC)c1
6380 nM: IC50 (second compound 0.0316 µM)
inactive: viability, T/C [1] 83.7% | viability, T/C [2] 84.7% | viability, T/C [3] 78.9% | viability, T/C [4] 75.9% | viability, T/C [5] 64.9% | viability, T/C [6] 40.3% | viability, T/C [7] 52.1% | viability, T/C [8] 50.2% | viability, T/C [9] 57% | viability, T/C [10] 49% | viability, T/C [11] 38.3% | viability, T/C [12] 29.7% | viability, T/C [13] 22.3% | viability, T/C [14] 17.4% | viability, T/C [15] 20.7% | viability, T/C [16] 17.8% | viability, T/C [17] 15.3% | viability, T/C [18] 17.5% | viability, T/C [19] 23.3% | viability, T/C [20] 18.6% | viability, T/C [21] 17.9% | viability, T/C [22] 21.3% | viability, T/C [23] 20% | viability, T/C [24] 17.4% | viability, T/C [25] 19.6% | viability, T/C [26] 21.1% | viability, T/C [27] 22.2% | viability, T/C [28] 19.4% | viability, T/C [29] 22% | viability, T/C [30] 18.4% | viability, T/C [31] 18.7% | viability, T/C [32] 19.8% | viability, T/C [33] 21.8% | viability, T/C [34] 19.8% | viability, T/C [35] 18.9% | viability, T/C [36] 15.2%
991 nM: IC50 (second compound 0.1 µM)
< 31.6 nM: IC50 (second compound 0.316 µM) | IC50 (second compound 1 µM) | IC50 (second compound 3.16 µM) | IC50 (second compound 10 µM)
